Measured values published in ChEMBL document CHEMBL1201861, “Genomics of Drug Sensitity in Cancer screening data, Wellcome Trust Sanger Institute”.
Several values for one entry are separate records, joined by “and”; a condition that tells them apart may be missing. Equal values may be shown once.

Legend:
Experiment in all cases: cells
ACHN = assay type: functional, cell-based, Homo sapiens;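 also: cell viability read-out used to gauge how strongly growth of human ACHN cells is suppressed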
Description: SANGER: Inhibition of human ACHN cell growth in a cell viability assay.

YAPC = assay type: functional, cell-based, Homo sapiens;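 also: growth inhibition of YAPC cells, measured with a cell viability assay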
Description: SANGER: Inhibition of human YAPC cell growth in a cell viability assay.

HCC2218 = assay type: functional, cell-based; details: Homo sapiens;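 also: cell viability assay read-out, with IC50 given as the concentration that inhibits growth of the cell line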
Description: SANGER: Inhibition of human HCC2218 cell growth in a cell viability assay.

NCI-H1693 = assay type: functional, cell-based, Homo sapiens;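 also: growth inhibition of the human cell line, read out with a cell viability assay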
Description: SANGER: Inhibition of human NCI-H1693 cell growth in a cell viability assay.

BFTC-909 = assay type: functional, cell-based, Homo sapiens
Description: SANGER: Inhibition of human BFTC-909 cell growth in a cell viability assay.

HEC-1 = assay type: functional, cell-based, Homo sapiens;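 also: growth inhibition of the cell line, read out with a cell viability assay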
Description: SANGER: Inhibition of human HEC-1 cell growth in a cell viability assay.

ASPC1 = assay type: functional, cell-based, Homo sapiens;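 also: growth inhibition of AsPC-1 cells, read out with a cell viability assay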
Description: SANGER: Inhibition of human AsPC-1 cell growth in a cell viability assay.

DOK = assay type: functional, cell-based, Homo sapiens;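 also: cell viability assay read-out, values reflect inhibition of cell growth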
Description: SANGER: Inhibition of human DOK cell growth in a cell viability assay.

LB831-BLC = assay type: functional, cell-based, Homo sapiens;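 also: growth inhibition of LB831-BLC cells, read out with a cell viability assay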
Description: SANGER: Inhibition of human LB831-BLC cell growth in a cell viability assay.

HCT-116 = assay type: functional, cell-based, Homo sapiens
Description: SANGER: Inhibition of human HCT-116 cell growth in a cell viability assay.

LS-123 = assay type: functional, cell-based, Homo sapiens
Description: SANGER: Inhibition of human LS-123 cell growth in a cell viability assay.

Mo = assay type: functional, cell-based; details: Homo sapiens
Description: SANGER: Inhibition of human Mo-T cell growth in a cell viability assay.

MFM-223 = assay type: functional, cell-based, Homo sapiens
Description: SANGER: Inhibition of human MFM-223 cell growth in a cell viability assay.

A673 = assay type: functional, cell-based, Homo sapiens;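 also: growth inhibition of human A673 cells, read out through a cell viability assay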
Description: SANGER: Inhibition of human A673 cell growth in a cell viability assay.

FaDu = assay type: functional, cell-based, Homo sapiens;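 also: cell viability readout of growth inhibition in FaDu cells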
Description: SANGER: Inhibition of human FADU cell growth in a cell viability assay.

CAS-1 = assay type: functional, cell-based, Homo sapiens;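 also: growth inhibition of CAS-1 cells, measured with a cell viability assay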
Description: SANGER: Inhibition of human CAS-1 cell growth in a cell viability assay.

VM-CUB-1 = assay type: functional, cell-based; details: Homo sapiens;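 also: cell viability assay measuring growth inhibition of the human VM-CUB-1 cell line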
Description: SANGER: Inhibition of human VM-CUB-1 cell growth in a cell viability assay.

NTERA-2-cl-D1 = assay type: functional, cell-based, Homo sapiens;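 also: inhibition of cell growth, measured with a cell viability assay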
Description: SANGER: Inhibition of human NTERA-S-cl-D1 cell growth in a cell viability assay.

EM-2 = assay type: functional, cell-based; details: Homo sapiens;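 also: growth inhibition of EM-2 cells, read out with a cell viability assay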
Description: SANGER: Inhibition of human EM-2 cell growth in a cell viability assay.

no-10 = assay type: functional, cell-based, Homo sapiens;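 also: growth inhibition of no-10 cells, read out with a cell viability assay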
Description: SANGER: Inhibition of human no-10 cell growth in a cell viability assay.

HT-3 = assay type: functional, cell-based, Homo sapiens;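 also: growth inhibition measured with a cell viability readout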
Description: SANGER: Inhibition of human HT-3 cell growth in a cell viability assay.

MOLT-4 = assay type: functional, cell-based; details: Homo sapiens;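 also: growth inhibition of MOLT-4 cells, determined with a cell viability readout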
Description: SANGER: Inhibition of human MOLT-4 cell growth in a cell viability assay.

CAL-54 = assay type: functional, cell-based, Homo sapiens;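 also: growth inhibition of CAL-54 cells, read out by a viability measurement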
Description: SANGER: Inhibition of human CAL-54 cell growth in a cell viability assay.

KGN = assay type: functional, cell-based, Homo sapiens;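 also: growth inhibition of KGN cells, read out with a cell viability assay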
Description: SANGER: Inhibition of human KGN cell growth in a cell viability assay.

DOHH-2 = assay type: functional, cell-based; details: Homo sapiens;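 also: growth inhibition of human DOHH-2 cells, read out with a cell viability assay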
Description: SANGER: Inhibition of human DOHH-2 cell growth in a cell viability assay.

D-336MG = assay type: functional, cell-based, Homo sapiens
Description: SANGER: Inhibition of human D-336MG cell growth in a cell viability assay.

MDA-MB-231 = assay type: functional, cell-based, Homo sapiens
Description: SANGER: Inhibition of human MDA-MB-231 cell growth in a cell viability assay.

SF-539 = assay type: functional, cell-based, Homo sapiens;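 also: Read-out is a cell viability assay, with IC50 reflecting inhibition of cell growth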
Description: SANGER: Inhibition of human SF539 cell growth in a cell viability assay.

HCC1419 = assay type: functional, cell-based, Homo sapiens;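 also: growth inhibition of human HCC1419 cells, read out as cell viability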
Description: SANGER: Inhibition of human HCC1419 cell growth in a cell viability assay.

EW-3 = assay type: functional, cell-based; details: Homo sapiens;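 also: cell viability assay read-out, IC50 reflects inhibition of growth of the EW-3 cells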
Description: SANGER: Inhibition of human EW-3 cell growth in a cell viability assay.

KM12 = assay type: functional, cell-based, Homo sapiens;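 also: KM12 cell growth inhibition, read out with a cell viability assay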
Description: SANGER: Inhibition of human KM12 cell growth in a cell viability assay.

GT3TKB = assay type: functional, cell-based, Homo sapiens;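 also: growth inhibition of the cell line, read out with a cell viability assay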
Description: SANGER: Inhibition of human GT3TKB cell growth in a cell viability assay.

RPMI-7951 = assay type: functional, cell-based, Homo sapiens
Description: SANGER: Inhibition of human RPMI-7951 cell growth in a cell viability assay.

HuP-T3 = assay type: functional, cell-based, Homo sapiens;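 also: HuP-T3 cell growth inhibition, read out with a cell viability assay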
Description: SANGER: Inhibition of human HuP-T3 cell growth in a cell viability assay.

SK-MEL-2 = assay type: functional, cell-based, Homo sapiens;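 also: growth inhibition of human SK-MEL-2 cells measured with a cell viability assay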
Description: SANGER: Inhibition of human SK-MEL-2 cell growth in a cell viability assay.

SK-MEL-1 = assay type: functional, cell-based; details: Homo sapiens;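 also: growth inhibition of human SK-MEL-1 cells, read out by a cell viability assay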
Description: SANGER: Inhibition of human SK-MEL-1 cell growth in a cell viability assay.

BT-20 = assay type: functional, cell-based, Homo sapiens;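 also: cell viability assay measuring suppression of growth in human BT-20 cells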
Description: SANGER: Inhibition of human BT-20 cell growth in a cell viability assay.

HGC-27 = assay type: functional, cell-based, Homo sapiens;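 also: growth inhibition of human HGC-27 cells, read out in a cell viability assay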
Description: SANGER: Inhibition of human HGC-27 cell growth in a cell viability assay.

T98G = assay type: functional, cell-based, Homo sapiens;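 also: growth inhibition of T98G cells, read out by a cell viability assay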
Description: SANGER: Inhibition of human T98G cell growth in a cell viability assay.

LNCaP-Clone-FGC = assay type: functional, cell-based, Homo sapiens
Description: SANGER: Inhibition of human LNCaP-Clone-FGC cell growth in a cell viability assay.

CW-2 = assay type: functional, cell-based, Homo sapiens;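 also: growth inhibition of CW-2 cells, read out by a cell viability assay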
Description: SANGER: Inhibition of human CW-2 cell growth in a cell viability assay.

HO-1-N-1 = assay type: functional, cell-based, Homo sapiens;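 also: growth inhibition of human HO-1-N-1 cells, read out with a cell viability assay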
Description: SANGER: Inhibition of human HO-1-N-1 cell growth in a cell viability assay.

MC116 = assay type: functional, cell-based; details: Homo sapiens;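 also: growth inhibition of MC116 cells, read out with a cell viability assay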
Description: SANGER: Inhibition of human MC116 cell growth in a cell viability assay.

NCI-H2087 = assay type: functional, cell-based, Homo sapiens;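 also: growth inhibition determined with a cell viability readout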
Description: SANGER: Inhibition of human NCI-H2087 cell growth in a cell viability assay.

OCI-AML2 = assay type: functional, cell-based; details: Homo sapiens;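 also: growth inhibition of OCI-AML2 cells, read out with a cell viability assay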
Description: SANGER: Inhibition of human OCI-AML2 cell growth in a cell viability assay.

SNU-5 = assay type: functional, cell-based; details: Homo sapiens;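 also: cell viability readout used to measure growth inhibition in human NCI-SNU-5 cells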
Description: SANGER: Inhibition of human NCI-SNU-5 cell growth in a cell viability assay.

SK-NEP-1 = assay type: functional, cell-based; details: Homo sapiens;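 also: growth inhibition of human SK-NEP-1 cells, read out by a cell viability assay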
Description: SANGER: Inhibition of human SK-NEP-1 cell growth in a cell viability assay.

G-402 = assay type: functional, cell-based, Homo sapiens
Description: SANGER: Inhibition of human G-402 cell growth in a cell viability assay.

8305C = assay type: functional, cell-based, Homo sapiens
Description: SANGER: Inhibition of human 8305C cell growth in a cell viability assay.

A204 = assay type: functional, cell-based, Homo sapiens;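 also: growth inhibition of human A204 cells, read out with a cell viability assay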
Description: SANGER: Inhibition of human A204 cell growth in a cell viability assay.

SK-MES-1 = assay type: functional, cell-based, Homo sapiens;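 also: growth inhibition of human SK-MES-1 cells, read out with a cell viability assay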
Description: SANGER: Inhibition of human SK-MES-1 cell growth in a cell viability assay.

C2BBe1 = assay type: functional, cell-based, Homo sapiens;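 also: growth inhibition of C2BBe1 cells, read out through a viability assay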
Description: SANGER: Inhibition of human C2BBe1 cell growth in a cell viability assay.

Compound: CCOc1nc(NC(=O)Cc2cc(OC)ccc2OC)cc(N)c1C#N
- IC50 (ACHN; Homo sapiens, ACHN): > 10 µM
- IC50 (YAPC; Homo sapiens, YAPC): > 10 µM
- IC50 (HCC2218): > 10 µM
- IC50 (NCI-H1693; Homo sapiens, NCI-H1693): > 10 µM
- IC50 (BFTC-909; Homo sapiens, BFTC-909): > 10 µM
- IC50 (HEC-1; Homo sapiens, HEC-1): > 10 µM
- IC50 (ASPC1; Homo sapiens, ASPC1): > 10 µM
- IC50 (DOK; Homo sapiens, DOK): > 10 µM
- IC50 (LB831-BLC; Homo sapiens, LB831-BLC): > 10 µM
- IC50 (HCT-116; Homo sapiens, HCT-116): > 10 µM
- IC50 (LS-123; Homo sapiens, LS-123): > 10 µM
- IC50 (Mo): > 10 µM
- IC50 (MFM-223; Homo sapiens, MFM-223): > 10 µM
- IC50 (A673; Homo sapiens, A673): > 10 µM
- IC50 (FaDu; Homo sapiens, FaDu): > 10 µM
- IC50 (CAS-1; Homo sapiens, CAS-1): > 10 µM
- IC50 (VM-CUB-1): > 10 µM
- IC50 (NTERA-2-cl-D1; Homo sapiens, NTERA-2-cl-D1): > 10 µM
- IC50 (EM-2): > 10 µM
- IC50 (no-10; Homo sapiens): > 10 µM
- IC50 (HT-3; Homo sapiens, HT-3): > 10 µM
- IC50 (MOLT-4): > 10 µM
- IC50 (CAL-54; Homo sapiens, CAL-54): > 10 µM
- IC50 (KGN; Homo sapiens, KGN): > 10 µM
- IC50 (DOHH-2): > 10 µM
- IC50 (D-336MG; Homo sapiens, D-336MG): > 10 µM
- IC50 (MDA-MB-231; Homo sapiens, MDA-MB-231): > 10 µM
- IC50 (SF-539; Homo sapiens, SF-539): > 10 µM
- IC50 (HCC1419; Homo sapiens, HCC1419): > 10 µM
- IC50 (EW-3): > 10 µM
- IC50 (KM12; Homo sapiens, KM12): > 10 µM
- IC50 (GT3TKB; Homo sapiens, GT3TKB): > 10 µM
- IC50 (RPMI-7951; Homo sapiens, RPMI-7951): > 10 µM
- IC50 (HuP-T3; Homo sapiens, HuP-T3): > 10 µM
- IC50 (SK-MEL-2; Homo sapiens, SK-MEL-2): > 10 µM
- IC50 (SK-MEL-1): > 10 µM
- IC50 (BT-20; Homo sapiens, BT-20): > 10 µM
- IC50 (HGC-27; Homo sapiens, HGC-27): > 10 µM
- IC50 (T98G; Homo sapiens, T98G): > 10 µM
- IC50 (LNCaP-Clone-FGC; Homo sapiens, LNCaP-Clone-FGC): > 10 µM
- IC50 (CW-2; Homo sapiens, CW-2): > 10 µM
- IC50 (HO-1-N-1; Homo sapiens, HO-1-N-1): > 10 µM
- IC50 (MC116): > 10 µM
- IC50 (NCI-H2087; Homo sapiens, NCI-H2087): > 10 µM
- IC50 (OCI-AML2): > 10 µM
- IC50 (SNU-5): > 10 µM
- IC50 (SK-NEP-1): > 10 µM
- IC50 (G-402; Homo sapiens, G-402): > 10 µM
- IC50 (8305C; Homo sapiens, 8305C): > 10 µM
- IC50 (A204; Homo sapiens, A204): > 10 µM
- IC50 (SK-MES-1; Homo sapiens, SK-MES-1): > 10 µM
- IC50 (C2BBe1; Homo sapiens, C2BBe1): > 10 µM

Compound: Cc1cc([C@@H](C)Nc2ccccc2C(=O)O)c2nc(N3CCOCC3)cc(=O)n2c1 [AZD-6482]
- IC50 (ACHN; achn): > 5.12 µM and 2.24 µM
- IC50 (YAPC; yapc): > 5.12 µM
- IC50 (HCC2218): > 5.12 µM
- IC50 (NCI-H1693; nci-h1693): > 5.12 µM
- IC50 (BFTC-909; bftc-909): > 5.12 µM
- IC50 (HEC-1; Homo sapiens, HEC-1): > 5.12 µM
- IC50 (HEC-1; hec-1): > 5.12 µM
- IC50 (ASPC1; aspc1): > 5.12 µM
- IC50 (DOK; dok): 3.85 µM and 1.53 µM
- IC50 (LB831-BLC; lb831-blc): > 5.12 µM
- IC50 (HCT-116; hct-116): > 5.12 µM
- IC50 (LS-123; ls-123): > 5.12 µM
- IC50 (Mo): > 5.12 µM
- IC50 (MFM-223; mfm-223): > 5.12 µM
- IC50 (A673; Homo sapiens, A673): > 5.12 µM
- IC50 (A673; a673): > 5.12 µM
- IC50 (FaDu; Homo sapiens, FaDu): > 5.12 µM
- IC50 (FaDu; fadu): > 5.12 µM
- IC50 (CAS-1; Homo sapiens, CAS-1): > 5.12 µM
- IC50 (CAS-1; cas-1): > 5.12 µM
- IC50 (VM-CUB-1): > 5.12 µM
- IC50 (NTERA-2-cl-D1; Homo sapiens, NTERA-2-cl-D1): 2.19 µM
- IC50 (NTERA-2-cl-D1; ntera-2-cl-d1): 4.38 µM
- IC50 (EM-2): > 5.12 µM
- IC50 (no-10): > 5.12 µM
- IC50 (no-10; Homo sapiens): > 5.12 µM
- IC50 (HT-3; ht-3): > 5.12 µM
- IC50 (MOLT-4): > 5.12 µM
- IC50 (CAL-54; cal-54): > 5.12 µM and 1.25 µM
- IC50 (KGN; kgn): 4.32 µM and > 5.12 µM
- IC50 (DOHH-2): 4.65 µM
- IC50 (D-336MG; d-336mg): 1.67 µM and 3.43 µM
- IC50 (MDA-MB-231; Homo sapiens, MDA-MB-231): > 5.12 µM
- IC50 (MDA-MB-231; mda-mb-231): > 5.12 µM
- IC50 (SF-539; sf-539): > 5.12 µM
- IC50 (HCC1419; hcc1419): > 5.12 µM
- IC50 (EW-3): > 5.12 µM
- IC50 (KM12; Homo sapiens, KM12): > 5.12 µM
- IC50 (KM12; km12): > 5.12 µM
- IC50 (GT3TKB; gt3tkb): > 5.12 µM
- IC50 (RPMI-7951; Homo sapiens, RPMI-7951): > 5.12 µM
- IC50 (RPMI-7951; rpmi-7951): > 5.12 µM
- IC50 (HuP-T3; hup-t3): > 5.12 µM
- IC50 (SK-MEL-2; Homo sapiens, SK-MEL-2): > 5.12 µM
- IC50 (SK-MEL-2; sk-mel-2): > 5.12 µM
- IC50 (SK-MEL-1): > 5.12 µM
- IC50 (BT-20; bt-20): 0.592 µM and 1.79 µM
- IC50 (HGC-27; hgc-27): 1.18 µM and > 5.12 µM
- IC50 (T98G; Homo sapiens, T98G): > 5.12 µM
- IC50 (T98G; t98g): > 5.12 µM
- IC50 (LNCaP-Clone-FGC; Homo sapiens, LNCaP-Clone-FGC): 1.52 µM
- IC50 (LNCaP-Clone-FGC; lncap-clone-fgc): 2.41 µM
- IC50 (CW-2; cw-2): > 5.12 µM
- IC50 (HO-1-N-1; ho-1-n-1): > 5.12 µM
- IC50 (MC116): 1.46 µM
- IC50 (NCI-H2087; Homo sapiens, NCI-H2087): > 5.12 µM
- IC50 (NCI-H2087; nci-h2087): > 5.12 µM
- IC50 (OCI-AML2): > 5.12 µM
- IC50 (SNU-5): > 5.12 µM
- IC50 (SK-NEP-1): > 5.12 µM
- IC50 (G-402; g-402): 3.24 µM and > 5.12 µM
- IC50 (8305C; 8305c): > 5.12 µM
- IC50 (A204; Homo sapiens, A204): > 5.12 µM
- IC50 (A204; a204): 2.77 µM
- IC50 (SK-MES-1; sk-mes-1): 0.79 µM and > 5.12 µM
- IC50 (C2BBe1; Homo sapiens, C2BBe1): > 5.12 µM
- IC50 (C2BBe1; c2bbe1): > 5.12 µM
